A short description of the data set: Saturation solubility. Format: physicochemical. As to the method:
For 48 h, a known excess of the samples (etoricoxib solid dispersions, physical mixtures, and pure etoricoxib) containing 10 mg of etoricoxib was mixed with 10 mL of phosphate buffer (pH = 6.8) and 0.1 N HCL (pH = 1.2) and placed in a constant-temperature rotating water bath (Gyromax—Frederick, MD, USA) set to 50 rpm (37 ± 0.5 °C). The samples were then filtered, diluted, and analyzed at 233 nm using a UV-VIS spectrophotometer (Shimadzu). The concentration of etoricoxib was then estimated. The experiment was carried out three times.

In brackets after ≈: the same amount, converted by molar mass. Where two headings read alike, the source gives them in different places.

As for `Cc1ccc(-c2ncc(Cl)cc2-c2ccc(S(C)(=O)=O)cc2)cn1` [Pure Etoricoxib, 5-chloro-6’-methyl-3-[4-(methylsulfonyl)phenyl]-2,3-bipyridine], the solubility at 48 h by setting is: (0.1 N HCl, pH 1.2, pure drug, 0.1 N HCL pH 1.2, 37 °C, read-out: Saturation solubility of pure etoricoxib in 0.1 N HCL pH(1.2)) 73.8 µg/mL (≈ 206 µM); (phosphate buffer, pH 6.8, pure drug, phosphate buffer pH 6.8, 37 °C, read-out: Saturation solubility of pure etoricoxib in Phosphate buffer pH(6.8)) 71.1 µg/mL (≈ 198 µM). Also, the “Saturation solubility of pure etoricoxib in Phosphate buffer pH(6.8)” value (pure drug, phosphate buffer pH 6.8, 37 °C, 48 h) was 71.12 μg/mL ± 1.23.
